Common to all, as to assay: Cell growth inhibitory activity, Compound A alone and combined with a second medical agent (CellTiter-Glo)
A general note: In ATP-based viability assays light output follows the ATP content of the culture.

One assay concerns OCI-LY3. Type of assay: cell-based. The settings on record: OCI-LY3, DLBCL (non-GCB), EZH2 WT; 7 days culture then 3 days in assay plate. As to the method: (§1) Cell strains listed in Table 1 and Table 2 were seeded in cell culture plates (for example, 6-well culture plates). DMSO solutions of Compound A diluted to different concentrations or DMSO alone were added such that the concentration of the solvent was 0.1%. The cells were cultured for 7 days. During the culturing, at intervals of about 3 days or 4 days depending on cell proliferation, subculturing was appropriately carried out. In the subculturing, DMSO solutions of Compound A diluted to different concentrations or DMSO alone were added to fresh medium at the same concentration as in initiation of the study.
(§2) The cell strains cultured in the above conditions were seeded in 96-well assay plates and the cells were cultured under a combination of the following conditions: • (i) DMSO solutions of Compound A diluted to different concentrations or DMSO alone were added such that the concentration of the solvent was 0.1%, and • (ii) DMSO solutions of a second medical agent or DMSO alone (if a preparation of a second medical agent was used, the preparation of the second medical agent was diluted with saline and used, or saline alone was used) was added such that the concentration of the solvent was 0.1%.
(§3) During the culturing period, the culture conditions were 37° C. and 5% CO2. On the day when the cells were seeded in a 96-well assay plate (day of seeding) and 3 days later (day of evaluation), a reaction was carried out using CellTiter-Glo 2.0 Assay reagent (Promega KK., #G9241) in accordance with the manual attached thereto. Thereafter, the amount of light emitted from each of the wells was measured by a plate reader (EnVision, PerkinElmer Co., Ltd.). Based on the luminescence of the sample addition group (TS) and the DMSO addition group (CS) for each treatment condition measured on the day of seeding; and the luminescence of the sample addition group (T) and the DMSO addition group (C) for each treatment condition measured on the day of evaluation, the cell growth inhibition rate was calculated in accordance with the following expression: Cell growth inhibition rate %={1−(T−TS)/(C−CS)}×100
(§4) Note that, if the number of cells of a sample addition group on the day of evaluation was lower than that of the day of seeding (T<TS), the cell-killing effect was calculated in accordance with the following expression: Cell-killing rate %=(T−TS)/TS×(−100)
(§5) The cell growth inhibition rate and cell killing rate obtained by calculation were fitted to the Sigmoid Emax model to calculate 100% cell growth inhibitory concentration of each of Compound A alone, a second medical agent alone, and Compound A-second medical agent combinations at different concentrations.
(§6) Based on the 100% cell growth inhibitory concentrations (Compound A alone: D1, second medical agent alone: D2, Compound A when used in combination: d1, second medical agent when used in combination: d2) calculated, the combination index (CI) was calculated in accordance with the following expression: CI=d1/D1+d2/D2 Determination was based on the criteria: if CI<1, a synergetic effect is present; if CI=1, an additive effect is present; and if CI>1, an antagonist effect is present (refer to Adv. Enzyme Regul. 1984, p. 2227-55).

The next assay relates to OCI-AML2. It counts as cell-based. The following applies: OCI-AML2, AML, MLL-AF6, DNMT3Amt, FLT3-ITD; 7 days culture then 3 days in assay plate. As to the method:
as §1, §2, §3, §4, §5, §6

A further assay concerns DB. It counts as cell-based. The settings on record: DLBCL (GCB), EZH2 MT (Y641N), 7 days culture then 3 days in assay plate. As to the method:
as §1, §2, §3, §4, §5, §6

For another assay, the system named is OCI-LY19. Type of assay: cell-based. The following applies: OCI-LY19, DLBCL (GCB), EZH2 WT; 7 days culture then 3 days in assay plate. How it is done: as §1, §2, §3, §4, §5, §6
The test system of another assay is DOHH-2. It counts as cell-based. The following applies: DOHH-2, DLBCL (GCB), EZH2 WT; 7 days culture then 3 days in assay plate. As to the method:
as §1, §2, §3, §4, §5, §6

A further assay has as its system MOLM14. It counts as cell-based. The settings on record: MOLM14, AML, MLL-AF9, FLT3-ITD; 7 days culture then 3 days in assay plate. As to the method:
as §1, §2, §3, §4, §5, §6

In another assay the test system is OCI-AML3. Type of assay: cell-based. The following applies: OCI-AML3, AML, NPM1mt, DNMT3Amt; 7 days culture then 3 days in assay plate. How it is done: as §1, §2, §3, §4, §5, §6
Another assay has as its system GRANTA-519. It counts as cell-based. The following applies: GRANTA-519, MCL, EZH2 WT; 7 days culture then 3 days in assay plate. As to the method:
as §1, §2, §3, §4, §5, §6

For another assay, the system named is OCI-LY7. Type of assay: cell-based. The settings on record: OCI-LY7, DLBCL (GCB), EZH2 WT; 7 days culture then 3 days in assay plate. As to the method:
as §1, §2, §3, §4, §5, §6

In a further assay the test system is SU-DHL-2. Type of assay: cell-based. The following applies: SU-DHL-2, DLBCL (non-GCB), EZH2 WT; 7 days culture then 3 days in assay plate. As to the method: as §1, §2, §3, §4, §5, §6
In another assay the test system is OCI-AML5. Type of assay: cell-based. The following applies: OCI-AML5, AML; 7 days culture then 3 days in assay plate. As to the method:
as §1, §2, §3, §4, §5, §6

The subject of the next assay is MOLM13. It counts as cell-based. The settings on record: MOLM13, AML, MLL-AF9, FLT3-ITD; 7 days culture then 3 days in assay plate. How it is done: as §1, §2, §3, §4, §5, §6
For a further assay, the system named is JeKo-1. Type of assay: cell-based. The following applies: JeKo-1, MCL, EZH2 WT; 7 days culture then 3 days in assay plate. How it is done:
as §1, §2, §3, §4, §5, §6

A further assay has as its system REC-1. Type of assay: cell-based. The following applies: REC-1, MCL, EZH2 WT; 7 days culture then 3 days in assay plate. How it is done: as §1, §2, §3, §4, §5, §6
A further assay relates to KARPAS-422. It counts as cell-based, human. The following applies: KARPAS-422, DLBCL (GCB), EZH2 MT (Y641N); 7 days culture then 3 days in assay plate. How it is done: as §1, with “study. […]” for “study.”
as §3, with “On the day when the cells were seeded in a 96-well assay plate (day of seeding) and 3 days later (day of evaluation), a reaction was carried out using CellTiter-Glo 2.0 Assay reagent (Promega KK., #G9241) in accordance with the manual attached thereto.” left out, “%={1−(T−TS)/(C−CS)}×100 […]” for “%={1−(T−TS)/(C−CS)}×100”

A further assay deals with MV-4-11. It counts as cell-based, human. The following applies: MV-4-11, AML, MLL-AF4, FLT3-ITD; 7 days culture then 3 days in assay plate. How it is done: as §1, with “study. […]” for “study.”
as §3, with “On the day when the cells were seeded in a 96-well assay plate (day of seeding) and 3 days later (day of evaluation), a reaction was carried out using CellTiter-Glo 2.0 Assay reagent (Promega KK., #G9241) in accordance with the manual attached thereto.” left out, “%={1−(T−TS)/(C−CS)}×100 […]” for “%={1−(T−TS)/(C−CS)}×100”

`Cc1cc(C)c(CNC(=O)c2cc(Cl)c3c(c2C)O[C@@](C)([C@H]2CC[C@H](N(C)C)CC2)O3)c(=O)[nH]1` [Compound A, (2R)-7-chloro-2-[trans-4-(dimethylamino)cyclohexyl]-N-[(4,6-dimethyl-2-oxo-1,2-dihydropyridin-3-yl)methyl]-2,4-dimethyl-1,3-benzodioxol-5-carboxamide p-toluenesulfonate]: the “Cpd A GI100 (100% cell growth inhibitory concentration)” value in the assay with OCI-LY3 is recorded as >1000 nM; with OCI-AML2, 647 nM; with DB it was >100 nM; with OCI-LY19 it was >1000 nM; in the assay with DOHH-2, 17 nM; with MOLM14, >1000 nM. For the same compound, the “Cpd A GI100 (100% cell growth inhibitory concentration)” value was >1000 nM in the assay on OCI-AML3; 53 nM in the assay on GRANTA-519; 90 nM in the assay with OCI-LY7; 4.9 nM in the assay with SU-DHL-2; >5 µM with OCI-AML5; 97 nM in the assay with MOLM13. The “Cpd A GI100 (100% cell growth inhibitory concentration)” value was 8.1 nM in the assay with JeKo-1, 170 nM in the assay on REC-1, 5.7 nM in the assay on KARPAS-422 and >100 nM with MV-4-11.

The values are drawn from US12390455B2, “EZH1/2 dual inhibitor-containing pharmaceutical composition to be used as a combination drug” (DAIICHI SANKYO COMPANY, LIMITED, priority 2018, dated 2025).
